Results on 1 compound are retold here after publication PMC11965660, “Isobavachalcone ameliorates Alzheimer disease pathology by autophagy-mediated clearance of amyloid beta and inhibition of NLRP3 inflammasome in primary astrocytes and 5x-FAD mice” (Frontiers in Pharmacology, 2025).

Each structure is given as a SMILES string. “Also recorded” adds a separate entry of the source.

The subject of one series is GFAP. Put plainly: Immunohistochemistry of GFAP in hippocampus. To be noted: 25 and 50 mg/kg, vs 5x-FAD control. The series is classed as in vivo, 5x-FAD mice. The source says: (§1) Hemizygous 5x-FAD transgenic mice (B6.Cg-Tg(APPSwFlLon, PSEN1*M146L*L286V) 6799Vas/Mmjax; MMRRC Strain: 034848-JAX) on congenic C57BL/6J genetic background were used for experiments. The 5x-FAD mice were genotyped using APP-specific qPCR probes to detect the transgene as per the protocol of Jackson Laboratory. Six months old 5x-FAD mice were randomly divided into three groups (n = 5), based on their body weights, with three males and two females in each group. We used mixed-cohort of males and females for our study to exclude any gender biased effect of IBC. Also, AD symptoms are more pronounced in females than in males ([Aggarwal and Mielke, 2023]), making it possible that males and females respond differently to the drug and treatment. Considering this, it is important to show effect of IBC on both sexes. At this age, Aβ deposition and neuroinflammation has already progressed in these mice. We have used IBC as a curative drug rather than a preventive drug. Prior to the initiation of the study, all the animals were acclimatized for 1 week under standard laboratory conditions; animals were drug naive with no prior procedures performed. All testing were performed from 1 to 4 p.m. […]
Mice’s hippocampus tissue was fixed in 10% formalin. […] Images were taken in a CQ1 high throughput imaging system and analyzed using cell pathfinder software.

The test system of a further series is primary astrocytes. As to the kind of experiment: Cell viability assay (MTT and SRB). To be noted: 24 h, up to 100 μM. The series is classed as cell-based, C57BL/6J mice. The procedure: For cell viability assay, primary astrocytes were seeded in 96 well plate and IBC treatment at different concentration was given for 24 h. For MTT assay, cells were treated with 1.25, 2.5, 5, 10, 20, 40, 80 and 100 μM of IBC, while for the SRB assay, 0.625, 1.25, 2.5, 5, […], 20, 40, 80 and 100 μM IBC treatment was given. MTT dye at a concentration of 2.5 mg/ml was added 4 h before experiment termination. Formazan crystals thus formed were dissolved in DMSO and absorbance was measured at 570 nm.
For the SRB assay, the experiment was terminated by adding 50% chilled TCA into the wells for 1 h. Pellets were washed five times with distilled water and kept drying. Cells were then incubated with SRB dye for 30 min at RT, followed by washing with 1% acetic acid thrice. After drying, pellets were dissolved in 10 mM Tris-HCl (pH-10.5) and absorbance was measured at 540 nm.

The test system of series [1] is Aβ42. Put plainly: Aβ estimation in plasma by ELISA. The series is classed as in vivo, 5x-FAD mice. To be noted: 25 and 50 mg/kg, vs untreated 5x-FAD control.
Excerpt: as §1
After the end of the experiment, blood was collected from the retinal orbital plexus of mice in EDTA-coated vials. […] The levels of Aβ in the plasma were measured by using the protein-specific ELISA kit.

Series [2] has as its system Aβ42. As to the kind of experiment: Aβ clearance assay in primary astrocytes. The series is classed as cell-based, C57BL/6J mice. As to the method: Aβ42-HiLyte fluor488 peptide was prepared following the manufacturer’s protocol (Anaspec Inc.). Primary astrocytes seeded on coverslips were treated with IBC (10 μM) or rapamycin (24 h). After 12 h, 2 μg/ml fluorochrome tagged (Hilyte fluor488) Aβ42 protein was added to cells for another 12 h. Bafilomycin A1 was given 3 h prior to experiment termination. After the end of the assay, cells were washed with PBS and cells were fixed with 4% PFA, permeabilized with Triton-X 100, and the nucleus was stained with DAPI, as mentioned above. Similarly, slides were prepared, and images were taken and analyzed in the CQ1 high throughput imaging system.
AMPK expression was knocked down from the cells by using siRNA against AMPK using FuGENE HD for 24 h. Primary astrocytes seeded in 6 well plates were incubated in OPTI-MEM media for 30 min prior to transfection. The transfection mixture was prepared and kept in sterile condition for 20 min before being added to the cells. Following this, cells were treated for NLRP3 inflammasome activation as described above.

A further series has as its system LC3B and LAMP1. Put plainly: LC3B and LAMP1 co-localization by confocal microscopy. The series is classed as cell-based, C57BL/6J mice. Conditions: primary astrocytes, 10 μM, 24 h. As to the method:
Cells were seeded on coverslips in 6 well plates. After treatments, cells were fixed with 4% paraformaldehyde (PFA) for 15 min and permeabilized with 0.1% Triton-X 100 for 7 min. Blocking was done for 30 min with 2% BSA, followed by overnight incubation with primary antibody. Alexa fluor conjugated secondary antibody incubation was given to cells for 1 h for labeling. The nucleus was stained with 4,6-diamidino-2-phenylindole (DAPI) (1 μg/mL) for 10 min. Following staining, the coverslips were mounted on slides using mounting media (PBS and glycerol at a ratio of 1:9). Cells were washed thrice with PBS after each incubation. The images were acquired in a CQ1 high-throughput imaging system.

As to `CC(C)=CCc1c(O)ccc(C(=O)/C=C/c2ccc(O)cc2)c1O` [IBC, isobavachalcone], the “GFAP expression (IHC)” value with GFAP is “significantly reduced”. The “toxicity in primary astrocytes (MTT and SRB)” value in the series on primary astrocytes was “no toxicity; also recorded: non-toxic”. Besides, the “Aβ42 in blood plasma” value with Aβ42 [1] is listed as “reduced levels”. The “intracellular Aβ level” value in the series on Aβ42 [2] (10 μM with bafilomycin A1) is given as “increased”. Moreover, in the series with Aβ42 [2] (10 μM with siAMPK), the “effect on clearance of Aβ” value is given as “complete reversal”. In addition, the “intracellular Aβ42-HiLyte fluor488 fluorescence” value with Aβ42 [2] (10 μM, 24 h, vs cells with Aβ alone) is “significantly low fluorescence”. The “co-localization of LC3B and LAMP1” value in the series with LC3B and LAMP1 was “proximity of LC3B and LAMP1”.
